Test system: collagen-induced arthritis (CIA) mouse model
Assay: Prophylactic collagen-induced arthritis (CIA) study
Type: in vivo, male DBA/1 mice
Method: The prophylactic effect of Compound A on CIA model in male DBA/1 mice^57 following intraperitoneal (ip) administration, treatment starting 1 hour prior to the last immunization was studied. A study comparing naïve mice (healthy, non-CIA, non-treated), vehicle-treated mice (CIA with DMSO, ip) and CIA mice treated daily with Compound A (7.5 mg/kg, ip) or MTX (0.3 mg/kg, ip) was performed. CIA developed rapidly in mice immunized with CII. In the prophylactic study, a 100% incidence of CIA was observed by day 29 in CII-immunized mice, with maximum AI of 8.55 observed at 41 days post immunization. The AI and incidence of all groups increased in a time-dependent mode from day 25 to day 41.
Separate prophylactic and therapeutic efficacy studies of COMPOUND A were performed. Methotrexate (MTX) (Jiangsu Hengrui Medicine Co, #11041411), Enbrel (Boehringer Ingelheim Pharma KG, # F39487), and vehicle (DMSO 100%, Sigma Aldrich # D2650) were administered to all groups via intraperitoneal injection once daily at a dose volume of 2 mL/kg. Observations for morbidity, mortality, injury, and the availability of food and water were conducted twice daily for all animals. Clinical observations were conducted daily during the study. Body weights were measured and recorded prior to randomization and then once daily during the study. Food consumption was measured and recorded daily. Biopsies for mid-term histology analysis were obtained on Day 13 in the prophylactic study. Necropsy examinations were performed at study termination; plasma samples were collected, organ weights were recorded
For the prophylactic and the therapeutic studies, CIA was induced in male DBA/1 mice (except naïve mice) by immunization with 0.1 mL emulsion containing an equal volume of bovine type II collagen solution (2 mg/mL) and Freuds Complete Adjuvant at the tail base. The first injection was given on Day 0 and the second injection as booster was given on Day 21 (41-43). COMPOUND A, vehicle (DMSO) and MTX (0.3 mg/kg) were administered daily, Enbrel (25 mg/kg) was administrated twice a week. For the prophylactic study, treatment started one hour before the second collagen injection and continued for 21 days except for the histology groups that were sacrificed at Day 13 ([…]). For the therapeutic study, treatment started at Day 28 and continued for 14 days.
CIA Assessment and Treatment. CIA was assessed in mice by two blinded observers to measure paw swelling with a capacity measurement method on Day 0, Day 20, Day 22, Day 25, Day 27, Day 29, Day 32, Day 34, Day 36, Day 39 and Day 41 after the first injection. The occurrence of arthritis was observed by scoring all paws for severity of erythema and swelling, using a clinical score ranging from 0 (no swelling) to 4 (severe swelling and erythema). The physical condition of the animals was observed daily. Scores and overall evaluation of the histology group arms were performed in the same way as the main groups. However, the values measured were not included in the mean value calculations of the main groups. The YLS-7B Foot Volume Measuring Instrument (Huaibei China Bio Equipment) was used to measure the foot volume of mice. The occurrence of arthritis was observed by scoring all paws for severity of erythema and swelling, using a clinical score ranging from 0 (no swelling) to 4 (severe swelling and erythema), i.e. yielding maximum arthritic index (AI) score 16 (46).
Measurement of the histopathology and clinical observations. At the end of the studies, one hind foot of each mouse was collected for histopathology. The foot including the ankle was fixed in 10% neutral formalin. The ankle joints were decalcified, dehydrated, embedded in paraffin, sectioned and stained with routine hematoxylin-eosin. The sections were studied using light microscopy (10×10 and 20×10 magnifications). Arthritis damage (histological damage score) was evaluated and scored by an investigator blinded for the treatment regimen. […]

[1] = hind paw, Compound A 7.5 mg/kg, MTX 0.3 mg/kg

CCCCCCCCc1ccc(OCC(=O)c2nc(C(=O)OC)cs2)cc1 [Compound A, Methyl 2-(2-(4-octylphenoxy)acetyl)thiazole-4-carboxylate]
arthritic index (AI) in comparison to the CIA control group (in words) (Days 32 to 41, Compound A 7.5 mg/kg ip daily, MTX 0.3 mg/kg ip daily): significantly reduced | articular cavity and peripheral tissue inflammatory cell infiltration, histopathology vs vehicle (in words) [1]: reduced | capillary and synovial hyperplasia, histopathology vs vehicle (in words) [1]: reduced | cartilage damage, histopathology vs vehicle (in words) [1]: no significant effect

Reference: patent publication US11034666B2, “Anti-inflammatory and antitumor 2-oxothiazoles and 2-oxothiophenes compounds” (Avexxin AS, priority 2013, dated 2021)
